# Read-outs that look alike come from different tables or passages of the source.
# Tests used:
# [1] = Pharmacokinetics after IV or oral dosing in mice
# Protocol: (§1) Groups of rodents were dosed either intravenously or orally in order to determine certain pharmacokinetic properties, including oral bioavailability and half-life. Bioavailability was determined by comparing plasma exposure following IV dosing in a [19% hydroxypropyl beta-cyclodextrin/5% DMSO in saline] formulation with plasma exposure following dosing by oral gavage in a 0.5% methyl cellulose formulation.
# [2] = Pharmacokinetics in rodents, plasma and brain (species not specified)
# Protocol: as §1
# [3] = system: laboratory rodents
# Description: The resident-intruder model is an established preclinical model of aggression and agitation, and allows spontaneous and natural expression of both offensive aggression/agitation and defensive behavior in laboratory rodents in a semi natural laboratory setting. […] The latency to attack and the number of attacks are measures of agitation.
# [4] = in vivo
# Protocol: as §1
# [5] = system: Mice; conditions: for Inhibition of distance travelled: 30-minute session
# Protocol: Sedation is assessed in the Locomotor Activity (LMA) model. Mice are placed in a novel chamber and their exploratory activity during a 30-minute session is measured as distance traveled.
# [6] = system: 7 different human CYP enzymes; experiment: Metabolism by panel of human recombinant CYP enzymes, % compound remaining; conditions: all incubations (7 CYPs); 2 µM; up to 60 min; NADPH
# [7] = target: CYP2C19 (Homo sapiens, UniProt P33261); conditions: recombinant enzyme, 1 h, 2 µM
# CYP2C19, sequence (P33261 whole entry): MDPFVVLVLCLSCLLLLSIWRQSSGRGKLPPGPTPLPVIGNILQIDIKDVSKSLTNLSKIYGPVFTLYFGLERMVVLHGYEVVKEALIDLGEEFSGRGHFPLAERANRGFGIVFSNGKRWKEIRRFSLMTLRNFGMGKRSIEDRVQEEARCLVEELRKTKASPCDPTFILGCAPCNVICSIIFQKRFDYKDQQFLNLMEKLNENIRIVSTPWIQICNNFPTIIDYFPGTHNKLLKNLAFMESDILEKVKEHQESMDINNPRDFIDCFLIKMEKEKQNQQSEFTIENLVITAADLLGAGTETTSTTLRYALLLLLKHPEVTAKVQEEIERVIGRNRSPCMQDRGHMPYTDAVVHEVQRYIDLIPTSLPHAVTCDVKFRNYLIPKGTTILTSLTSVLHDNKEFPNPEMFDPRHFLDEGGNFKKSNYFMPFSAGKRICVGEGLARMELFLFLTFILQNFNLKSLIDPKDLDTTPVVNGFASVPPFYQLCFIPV
# [8] = target: CYP2D6 (Homo sapiens, UniProt P10635); conditions: recombinant enzyme, 1 h, 2 µM
# CYP2D6, sequence (P10635 whole entry): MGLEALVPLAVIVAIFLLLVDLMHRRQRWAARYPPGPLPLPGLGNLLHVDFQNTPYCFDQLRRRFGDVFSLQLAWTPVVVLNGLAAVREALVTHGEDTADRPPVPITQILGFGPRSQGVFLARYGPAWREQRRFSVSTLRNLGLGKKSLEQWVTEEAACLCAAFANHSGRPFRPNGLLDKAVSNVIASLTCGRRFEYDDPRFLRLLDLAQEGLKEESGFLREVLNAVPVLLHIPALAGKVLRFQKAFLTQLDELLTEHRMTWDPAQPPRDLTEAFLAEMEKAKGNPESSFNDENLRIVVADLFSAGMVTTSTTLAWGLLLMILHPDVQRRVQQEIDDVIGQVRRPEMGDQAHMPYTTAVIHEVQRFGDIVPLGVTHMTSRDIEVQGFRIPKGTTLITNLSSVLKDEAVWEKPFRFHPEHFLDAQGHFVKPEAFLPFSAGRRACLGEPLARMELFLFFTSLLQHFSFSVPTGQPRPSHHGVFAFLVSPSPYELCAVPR
# [9] = target: CYP2C8 (Homo sapiens, UniProt P10632); conditions: recombinant enzyme, 1 h, 2 µM
# CYP2C8, sequence (P10632 whole entry): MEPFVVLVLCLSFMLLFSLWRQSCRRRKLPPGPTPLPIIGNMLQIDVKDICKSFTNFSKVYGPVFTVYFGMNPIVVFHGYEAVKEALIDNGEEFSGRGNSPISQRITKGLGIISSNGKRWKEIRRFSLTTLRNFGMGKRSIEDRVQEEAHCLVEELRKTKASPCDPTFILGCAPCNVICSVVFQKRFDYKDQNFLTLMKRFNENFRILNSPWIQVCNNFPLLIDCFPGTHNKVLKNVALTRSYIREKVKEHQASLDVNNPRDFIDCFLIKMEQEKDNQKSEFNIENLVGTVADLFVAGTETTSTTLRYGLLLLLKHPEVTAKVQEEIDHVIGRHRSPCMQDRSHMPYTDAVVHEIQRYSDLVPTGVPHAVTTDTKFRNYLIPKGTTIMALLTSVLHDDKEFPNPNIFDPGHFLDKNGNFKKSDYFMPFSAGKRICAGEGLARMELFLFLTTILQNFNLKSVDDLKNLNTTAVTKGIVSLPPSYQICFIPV
# [10] = target: CYP2B6 (Homo sapiens, UniProt P20813); conditions: recombinant enzyme, 1 h, 2 µM
# CYP2B6, sequence (P20813 whole entry): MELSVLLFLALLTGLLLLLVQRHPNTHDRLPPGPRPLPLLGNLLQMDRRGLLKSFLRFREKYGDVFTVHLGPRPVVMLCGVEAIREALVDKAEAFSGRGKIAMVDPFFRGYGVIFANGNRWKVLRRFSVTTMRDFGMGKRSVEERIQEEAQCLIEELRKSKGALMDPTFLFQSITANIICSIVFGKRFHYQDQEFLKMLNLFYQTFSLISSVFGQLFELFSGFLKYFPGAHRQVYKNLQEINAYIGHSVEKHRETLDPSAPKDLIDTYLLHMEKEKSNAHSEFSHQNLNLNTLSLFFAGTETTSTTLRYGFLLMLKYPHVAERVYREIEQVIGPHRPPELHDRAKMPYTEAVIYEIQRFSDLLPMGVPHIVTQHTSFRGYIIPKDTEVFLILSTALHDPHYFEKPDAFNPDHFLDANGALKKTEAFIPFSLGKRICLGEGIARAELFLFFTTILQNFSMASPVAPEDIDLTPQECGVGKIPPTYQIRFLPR
# [11] = target: CYP3A4 (Homo sapiens, UniProt P08684); conditions: recombinant enzyme, 1 h, 2 µM
# CYP3A4, sequence (P08684 whole entry): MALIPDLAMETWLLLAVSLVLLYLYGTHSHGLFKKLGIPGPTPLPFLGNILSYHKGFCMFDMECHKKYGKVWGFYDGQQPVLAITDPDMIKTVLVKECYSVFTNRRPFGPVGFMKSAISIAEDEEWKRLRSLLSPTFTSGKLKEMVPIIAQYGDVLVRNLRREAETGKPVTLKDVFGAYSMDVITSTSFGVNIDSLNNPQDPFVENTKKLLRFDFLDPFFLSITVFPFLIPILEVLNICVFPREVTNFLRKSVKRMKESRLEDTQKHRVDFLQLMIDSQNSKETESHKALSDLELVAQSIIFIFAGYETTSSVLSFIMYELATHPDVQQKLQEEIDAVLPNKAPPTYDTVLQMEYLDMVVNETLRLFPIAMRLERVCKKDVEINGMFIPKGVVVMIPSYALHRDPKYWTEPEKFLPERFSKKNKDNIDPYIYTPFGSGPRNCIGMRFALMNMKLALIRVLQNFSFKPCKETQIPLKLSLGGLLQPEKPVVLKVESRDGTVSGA
compound,measurement,setting,value
Cc1c(CO)cccc1[C@H](C)c1c[nH]cn1,Time to maximum plasma concentration,[1]; mice,≤ 10 min
same,bioavailability,"[1]; mouse, plasma, oral",≤ 51%
same,Mean decrease of levels in plasma and brain,[2]; between 2 and 8 hrs,< 2 fold
same,Time to achieve pharmacological concentrations in the brain,[2]; brain,≤ 30 minutes
same,half-life,"[2]; plasma, po",4.2 to 7 h
same,Half-life relative to dexmedetomidine (longer),"[2]; rodents (mice and rats), plasma, oral",2- to 4 fold
same,Activity in resident-intruder model,[3]; 1 mg/kg,minimal activity
same,bioavailability,"[4]; rat, in vivo",≤ 34%
same,Time to maximum plasma concentration,[4]; rats,≤ 17 min
same,Sedation in LMA model,[5]; 1 mg/kg,minimally sedating
same,Inhibition of distance travelled,[5]; 2 mg/kg,about 25%
same,Inhibition of distance travelled,[5]; 3 mg/kg,< 50%
same,Maximum achievable level of activity in the LMA model,[5]; compared with dexmedetomidine,less than the maximum achievable level of activity with dexmedetomidine
same,Concentration as % of the starting concentration,[6],> 90%
Cc1c(CO)cccc1[C@@H](C)c1c[nH]cn1 [(R)-(3-(1-(1H-imidazol-4-yl)ethyl)-2-methylphenyl)methanol],bioavailability,"[4]; rat, in vivo, po",7%
Cc1cccc([C@H](C)c2cnc[nH]2)c1C [dexmedetomidine],% of compound remaining,[7],74%
same,% of compound remaining,[8],7%
same,% of compound remaining,[9],84%
same,Inhibition of attacks,[3]; 0.2 mg/kg,20%
same,% of compound remaining,[10],28%
same,bioavailability,"[4]; rat, in vivo, po",8.6%
same,half-life,"[4]; rat, in vivo, po",2 h
same,% of compound remaining,[11],89%

# From patent US20260207559A1, “(S)-(3-(1-(1H-IMIDAZOL-4-YL)ETHYL)-2-METHYLPHENYL)METHANOL FOR TREATMENT OF AGITATION” (Alceptor Therapeutics, Inc., priority 2022, published 2026)
